Reference: PMC9320114 (Molecules, 2022)

Molecular target: MurC (Escherichia coli, UniProt P17952)
Experiment: Inhibition of MurC, colorimetric malachite green method
Assay type: biochemical, bacterial
Details: for remaining activity at 100 µM: 0.25 h, residual activity at 100 µM, read-out: MurC RA (%); for remaining activity at 100 µM / IC50: Table 2; for IC50: IC50 ± SEM, read-out: MurC IC50; for MurC inhibition (in words): assayed at 100 µM
Protocol: Inhibition of Mur enzymes was monitored with the colorimetric malachite green method, which measured orthophosphate formed during reaction. The mixtures with a final volume of 50 µL contained:
MurC: 50 mM HEPES-NaOH, pH 8.0, 5 mM MgCl2, 0.005% Triton X-114, 120 µM L-Ala, 120 µM UDP-N-acetyl-muramic acid, 450 µM ATP, purified MurC, and 50 or 100 µM of each compound tested.
All compounds were soluble in the assay mixtures containing 5% DMSO (v/v). After incubation for 15 min (20 min for DdlB) at 37 °C, the enzyme reaction was terminated by addition of Biomol® reagent (100 µL) and absorbance was measured after 5 min at 650 nm (Synergy™ H4 microplate reader; BioTek Instruments, Inc., BioTek Gen5 Data Analysis Software, version 2.9, Santa Clara, CA, USA). All experiments were performed in duplicate.

Chain of MurC (P17952 whole entry): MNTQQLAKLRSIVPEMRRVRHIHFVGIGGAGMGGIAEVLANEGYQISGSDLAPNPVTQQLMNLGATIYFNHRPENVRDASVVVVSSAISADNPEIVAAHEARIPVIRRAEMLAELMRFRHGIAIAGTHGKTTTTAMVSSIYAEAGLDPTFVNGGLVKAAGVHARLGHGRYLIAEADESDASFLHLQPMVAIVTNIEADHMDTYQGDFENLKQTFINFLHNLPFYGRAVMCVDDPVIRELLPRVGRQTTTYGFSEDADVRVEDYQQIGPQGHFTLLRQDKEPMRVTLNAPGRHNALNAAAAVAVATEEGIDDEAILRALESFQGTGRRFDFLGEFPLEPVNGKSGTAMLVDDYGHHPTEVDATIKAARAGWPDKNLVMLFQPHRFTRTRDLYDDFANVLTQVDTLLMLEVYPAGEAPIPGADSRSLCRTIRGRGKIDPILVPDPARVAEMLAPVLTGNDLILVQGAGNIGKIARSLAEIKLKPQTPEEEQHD

| Structure (SMILES) | remaining activity at 100 µM [%] | IC50 [µM] | MurC inhibition (in words) |
| --- | --- | --- | --- |
| CCCCc1nc2ccn(Cc3ccccc3Cl)c(=O)c2n1Cc1ccc(-c2ccccc2-c2nnn[nH]2)cc1 [Compound 11] | 20 | 77 ± 12 |  |
| CCCCc1nc2ccn(Cc3ccccc3C(=O)O)c(=O)c2n1Cc1ccc(-c2ccccc2-c2nnn[nH]2)cc1 [Compound 13] | 34 | 109 ± 26 |  |
| CCCCc1nc2ccn(CC(=O)NC(C)(C)C)c(=O)c2n1Cc1ccc(-c2ccccc2S(=O)(=O)NC(=O)CCc2ccccc2)cc1F [Compound 15] | 59 |  | loss of MurC inhibition |
| CCCCc1nc2ccn(Cc3ccccc3-c3ccccc3)c(=O)c2n1Cc1ccc(-c2ccccc2-c2nnn[nH]2)cc1 [Compound 19] | 15 | 75 ± 9 |  |
| CCCCc1nc2ccn(Cc3ccsc3)c(=O)c2n1Cc1ccc(-c2ccccc2-c2nnn[nH]2)cc1 [Compound 14] | 26 | 90 ± 13 |  |
| CCCCc1nc2ccn(Cc3ccccc3C(=O)OCC)c(=O)c2n1Cc1ccc(-c2ccccc2C#N)cc1 [Compound 18] | 58 |  |  |
| CCCCc1nc2ccn(CC(=O)N3CCCCC3)c(=O)c2n1Cc1ccc(-c2ccccc2S(=O)(=O)NC(=O)CCc2ccccc2)cc1F [Compound 16] | 53 |  |  |
| CCCCc1nc2ccn(Cc3ccccc3F)c(=O)c2n1Cc1ccc(-c2ccccc2-c2nnn[nH]2)cc1 [Compound 10] | 30 | 92 ± 11 |  |
| CCCCc1nc2ccn(Cc3ccccc3C(=O)OC)c(=O)c2n1Cc1ccc(-c2ccccc2-c2nnn[nH]2)cc1 [Compound 12] | 27 | 84 ± 15 |  |
| CCCCc1nc2ccn(CC(=O)C(C)(C)C)c(=O)c2n1Cc1ccc(-c2ccccc2-c2nnn[nH]2)cc1 [Compound 17] | 75 |  | loss of MurC inhibition |
